# Legend:
# [1] = test system: SVEC4-10 cells; experiment: Trans-endothelial migration assay across SVEC4-10 endothelial cells; type: cell-based, mouse; details: DKO LN cells pre-activated with Ionomycin 2 μg/ml for 2 hours; FIG. 8F
# [2] = test system: Fyn, IR, Lck, Btk; details: cited from earlier work
# [3] = test system: Ctla4−/− mice; experiment: Treatment of Ctla4−/− mice with ITK inhibitors (survival, T cell activation, LN size, tissue infiltration); type: in vivo, mouse; details: BMS509744 at 50 mg/kg, 10n at 1 mg/kg and 10 mg/kg, starting at 10 days of age; FIG. 5A
# Procedure: Control mice (n=10) were injected with solvent alone. […] Data are representative of three experiments with 4-10 mice in each group per experiment.
# [4] = test system: 14 other kinases; details: cited from earlier work
# [5] = target: T1, ITK (Homo sapiens, UniProt Q08881); details: ATP-competitive; cited from earlier work
# T1 sequence (Q08881 1-620): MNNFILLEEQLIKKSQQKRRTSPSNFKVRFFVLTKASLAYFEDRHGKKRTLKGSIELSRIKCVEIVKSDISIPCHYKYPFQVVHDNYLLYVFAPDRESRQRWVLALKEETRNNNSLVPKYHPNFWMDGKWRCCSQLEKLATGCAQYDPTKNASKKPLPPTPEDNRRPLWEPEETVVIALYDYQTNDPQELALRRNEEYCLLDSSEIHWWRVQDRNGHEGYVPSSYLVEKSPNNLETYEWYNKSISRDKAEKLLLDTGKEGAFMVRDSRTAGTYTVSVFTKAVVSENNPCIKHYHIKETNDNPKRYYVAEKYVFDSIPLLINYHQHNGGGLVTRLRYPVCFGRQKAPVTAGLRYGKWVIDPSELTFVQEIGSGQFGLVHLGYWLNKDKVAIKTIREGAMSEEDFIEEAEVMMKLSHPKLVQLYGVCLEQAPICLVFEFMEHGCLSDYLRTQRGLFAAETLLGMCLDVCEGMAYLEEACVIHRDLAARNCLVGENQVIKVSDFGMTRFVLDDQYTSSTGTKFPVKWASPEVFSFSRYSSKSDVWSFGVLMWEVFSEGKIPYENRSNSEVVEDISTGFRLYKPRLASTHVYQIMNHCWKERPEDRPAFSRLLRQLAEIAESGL
smiles,measurement,setting,value
C[C@H](CCC(=O)O)C[C@H](C)C[C@H](C)C(=O)/C=C(\O)[C@H](C)C[C@H](C)C/C=C/[C@@H](C)[C@@H](O)[C@@H](C)[C@@H](O)C[C@@H]1CC[C@@](C)([C@H]2CC[C@@](C)([C@@H](C)O)O2)O1 [Ionomycin],frequency of DKO T cells migrating across the endothelium,[1],increased the frequency of DKO T cells that were able to migrate across the endothelium
COc1cc(C)c(Sc2cnc(NC(=O)c3ccc(CNC(C)C(C)(C)C)cc3)s2)cc1C(=O)N1CCN(C(C)=O)CC1 (centres unmarked) [BMS509744],"inhibition of Fyn, IR, Lck, Btk",[2],only at high concentrations
same,lifespan of Ctla4−/− mice,[3],significantly increased their lifespan
same,activity against 14 other kinases,[4],little or no activity
same,inhibition of ITK kinase activity,[5],potently inhibits ITK kinase activity
